# “Also recorded” adds a separate entry of the source.
# Tests used:
# [1] = biological target: T1, PLCδ-PH (Rattus norvegicus, UniProt P10688); assay: Spin-column competition assay for 3H-I(145)P3 binding to PLCδ-PH
# T1 construct: initiator methionine (N); made in house; host or cells: Escherichia coli (pET11a, T7 system)
# T1 sequence (P10688 20-136): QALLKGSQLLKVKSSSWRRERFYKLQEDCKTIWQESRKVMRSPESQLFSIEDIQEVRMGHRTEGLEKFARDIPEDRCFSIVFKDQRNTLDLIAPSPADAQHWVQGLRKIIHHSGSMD
# Protocol: A spin-column based competition assay was employed to determine relative affinities of other inositol polyphosphates for PLCδ-PH. […] The sample (40 μl) was then applied to a Biogel P6 gel filtration spin-column. […] Each curve represents the mean of two or more experiments.
# The sample was then applied to a pre-spun 1 ml spin-column containing Biogel P6 desalting medium. The spin-column was then centrifuged for 4 minutes at 900 g. Essentially all of the protein was determined to pass through the column under these conditions, and no significant counts were seen to pass through the column in the absence of protein. After spinning, all of the material that passed through the column was added to scintillation fluid for counting. Counts were normalized to those obtained in the absence of competitor, and plotted as fraction of maximal binding. […]
# Values for which a precise number is given represent the mean of at least two experiments.
# [2] = biological target: T1, PLCδ-PH; assay: Equilibrium gel filtration (Hummel and Dreyer) of PH domain binding to lipid vesicles; details: lipid-containing DMPC vesicles; overestimates of the real KD; read-out: apparent KD for vesicle binding
# Protocol: (§1) A 150×7.5 mm Superdex 75 column, attached to a Dionex HPLC system, was equilibrated with buffer containing PH domain at around 5 μM (depending upon the experiment). A suspension of vesicles that also contained 5 μM PH domain was then injected. In the absence of interaction between the PH domain and the vesicles, the resulting column profile (detected by absorbance at 280 nm) reflects only the lipid peak. However, if there is significant interaction, a trough is observed at a position corresponding to the elution position of the free PH domain, since the lipids have removed free PH domain from the column buffer. When such a trough was observed, in order to determine a KD for the interaction, a series of higher concentrations of PH domain were injected, all with constant lipid concentration. A plot of trough area against [PH] in the injected sample was linear, becoming positive when excess free protein was present in the injected sample (see FIG. 5B). This line was used to determine the point at which no trough was observed. At this point, [PH]free in the injected sample is equal to [PH] in the column buffer. Since [PH]total as well as [lipid]total in the injected sample are known, KD can be determined, as KD=([PH]free×[lipid]free)/[complex]. [complex]=[PH]total−[PH]free, and [lipid]free=[lipid]total−[complex].
# (§2) We also utilized the equilibrium gel-filtration approach described by Hummel, J. P., and Dreyer, W. J., Biochim. Biophys. Acta. 63, 530-532, 1962. In this approach, a size exclusion column is equilibrated with a solution of the ligand (5 μM PH domain in this case), and a solution of macromolecule (a vesicle suspension in this case) that also contains 5 μM ligand is then injected. In the absence of interaction between the ligand and macromolecule, a single peak, corresponding to the macromolecule, is observed. […] If an interaction is observed, its KD can be determined as described in Experimental Procedures. […]
# [3] = biological target: T2, PlecN-PH (Homo sapiens, UniProt P08567); assay: as above; details: PIP2-containing vesicles; overestimate; inhibited by moderately high NaCl; read-out: apparent KD for vesicle binding
# T2 construct: residues 1-110 of pleckstrin (PlecN-PH); initiator methionine (N); made in house; host or cells: Escherichia coli (pET11a, T7 system)
# T2 sequence (P08567 1-110): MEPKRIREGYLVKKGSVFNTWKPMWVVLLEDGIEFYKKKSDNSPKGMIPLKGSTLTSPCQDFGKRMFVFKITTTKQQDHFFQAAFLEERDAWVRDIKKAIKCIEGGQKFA
# Protocol: as §1, §2
# [4] = biological target: T3, Dyn-PH (Homo sapiens, UniProt Q05193); assay: as above; details: PIP2-containing vesicles
# T3 construct: The PH domains from PLC-δ1, and dynamin, as well as the N-terminal PH domain of pleckstrin; made in house; host or cells: Escherichia coli (T7 system)
# T3 sequence (Q05193 519-625 limits assumed): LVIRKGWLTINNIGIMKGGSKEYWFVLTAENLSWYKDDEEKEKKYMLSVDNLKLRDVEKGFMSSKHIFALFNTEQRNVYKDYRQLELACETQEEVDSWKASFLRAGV
# Protocol: as §1, with “At this point, [PH]free in the injected sample is equal to [PH] in the column buffer.” left out, “[complex]=[PH]total−[PH]free, and [lipid]free=[lipid]total−[complex].” left out
# We also utilized the equilibrium gel-filtration approach described by Hummel, J. P., and Dreyer, W. J., Biochim. […] If an interaction is observed, its KD can be determined as described in Experimental Procedures. […]
substance,measurement,setting,value
"Phosphatidylinositol-(4,5)-bisphosphate [PIP2]",Kd,"[1]; PIP2: 5% in DMPC vesicles, assuming 50% available, read-out: KD from competition assay",~400 nM
same,competition for I(145)P3 binding by lipid vesicles,"[1]; lipid at 5% in DMPC vesicles or pure DMPC, assuming 50% of lipid on the surface",almost as effective as that seen with unlabelled I(145)P3; also recorded: as effectively as can GPIP2
same,binding weaker than I(145)P3,[1]; relative to I(145)P3 binding to PLCδ-PH,two-fold weaker
same,Kd,[2],13 µM
same,Kd,[3],~90 µM
same,binding to vesicles,[4],no detectable binding

# From US7314620B2, “Methods for diagnosis and treatment of PH domain signal transduction disorders” (New York University, priority 1995, dated 2008)
